Holding throughout (type): physicochemical
A short description of data set [1]: Moisture resistance of the printed images. Further details: key: ∘: No bleeding; Δ: Slight bleeding; x: Notable bleeding. To be noted: printed images at 50° C. and 90% RH for 168 h; bleeding judged by bare eyes. The method, then: (§1) The mixture product M1, M2 or M3 and the pure compound obtained by separation according to the embodiments 1-3 are used as the magenta colorant, and the ink composition is prepared according to the formula shown in following table 1, and the magenta aqueous ink composition is obtained by filtering with a 0.45 μm membrane filter, wherein triethanolamine is added to adjust the pH value of the ink composition to 8-10, and deionized water is added to make the total amount reach 100 parts-by-weight (PBW).
(§2) Use an ink-jet printer (Epson 270 manufactured by Epson Company), glossy photo paper (Epson) and the above described ink compositions for ink-jet printing.
(3) Moisture Resistance of the Printed Images
Place the printed images in the Constant Temperature and Humidity Chamber (manufactured by China Surui Company) at 50° C. and 90% RH for 168 h; judge the bleeding of the ink by bare eyes before and after the test and evaluate it in 3 grades based on the following benchmark: […]

The nature of data set [2]: Xenon lamp light-resistance test of the printed images. To be noted: ink with 6 parts dye, ink-jet printed on glossy photo paper; xenon lamp 0.36 W/m^2, 50 h, 60% RH, 24° C.; grade by color difference ΔE. The procedure:
as §1, §2
(1) Xenon Lamp Light-Resistance Test of the Printed Images
Irradiate the printed glossy photo paper manufactured by Canon and Epson with Xenon-lamp Weathering Test Chamber ZG-P (manufactured by China Surui Company) at 60% RH and 24° C. with illuminance of 0.36 W/m^2 for 50 h to test the color difference (ΔE) before and after the test. The color difference (ΔE) is calculated from the differences of values of L*, a*, b* before and after the test in the above described color measurement system (Unterlab) by the followings formula: ΔE=((difference of L*)^2+(difference of a*)^2+(difference of b*)^2)^1/2.
Three grades will be divided for the evaluation based on the following benchmark: […]

Data set [3] can be described thus: Ozone gas resistance of the printed images. Conditions: ink with 6 parts dye, printed on glossy photo paper; 40 ppm ozone, 60% RH, 24° C.; grade by color difference ΔE. The method, then:
Use an ink-jet printer (Epson 270 manufactured by Epson Company), glossy photo paper (Epson) and the above described ink compositions for ink-jet printing. (2) Ozone Gas Resistance of the Printed Images Place the printed images in the Ozone Weathering Test Chamber (manufactured by China Surui Company) at 60% RH, 24° C. and 40 ppm ozone. Calculated the color difference (ΔE) before and after the test by the same method as described in (1) above and evaluate it in 3 grades based on the following benchmark: ΔE<10 ∘ ΔE<20 Δ ΔE>20 x

A short description of data set [4]: Evaluation of long-term stability of the dye in aqueous solvent system. Further details: key: ∘: No precipitation; Δ: Slight precipitation; x: Notable precipitation. Conditions: 20 parts dye, 70 parts water, 10 parts ethylene glycol; 50° C. for 7d, then 0° C. for 7d; filtered, precipitation graded. The method, then: (E) Evaluation of Long-Term Stability of the Dye in Aqueous Solvent System
Heat and dissolve the system of 20 parts of dyes, 70 parts of water and 10 parts of ethylene glycol; after the solution cools down, store it airtight at a constant temperature of 50° C. for 7d; cool it down and store it at 0° C. for 7d; filter the solution and evaluate it in 3 grades based on the following benchmark: […]

A short description of data set [5]: Evaluation of the dye solubility in water. To be noted: grade by g/100 g water. The text has this: (D) Evaluation of the Dye Solubility in Water (g/100 g Water)
Solubility of the dye in water >30 ∘
Solubility of the dye in water >15-20 Δ
Solubility of the dye in water <15 x

Experimental findings from patent publication US8734580B2, “Carbonyl propyl sulfuryl anthrapyridone sulfonic acid compounds and their preparation methods and applications” (Dalian University of Technology, priority 2011, dated 2014) are described below.

Consider `O=S(=O)([O-])c1cc(Nc2nc(Nc3ccc(/C=C/c4ccc(Nc5nc(Nc6cc(S(=O)(=O)[O-])cc7cc(S(=O)(=O)[O-])c(N=Nc8ccccc8)c(O)c67)nc(N6CCOCC6)n5)cc4S(=O)(=O)[O-])c(S(=O)(=O)[O-])c3)nc(N3CCOCC3)n2)c2c(O)c(N=Nc3ccccc3)c(S(=O)(=O)[O-])cc2c1.[Na+].[Na+].[Na+].[Na+].[Na+].[Na+]` [C.I. direct red 227, reference compound], for which, in data set [1], the “Water resistance of ink printed images” value is “Δ”. Also, the “Ultraviolet resistance of ink printed images” value (“Ultraviolet resistance” below) in data set [2] is “x (ΔE>20)”. Also, in data set [3], the “Ozone resistance of ink printed images” value was “x (ΔE>20)”. Moreover, the “Long-term stability of the dye in aqueous solvent system” value (“Long-term stability of the dye” below) in data set [4] is given as “Δ”. The “Solubility of dye in water” value in data set [5] is listed as “x (Solubility of the dye in water <15)”.

On to `O=C(O)CCCS(=O)(=O)c1cc(S(=O)(=O)O)c(Nc2cc(S(=O)(=O)O)c3[nH]c(=O)c(C(=O)c4cccc(S(=O)(=O)O)c4)c4c3c2C(=O)c2ccccc2-4)c(S(=O)(=O)O)c1` [Dp2], for which the “Water resistance of ink printed images” value in data set [1] is listed as “∘”. Besides, the “Ultraviolet resistance” value in data set [2] is “∘ (ΔE<10)”. Moreover, the “Ozone resistance of ink printed images” value in data set [3] is recorded as “∘ (ΔE<10)”. The “Long-term stability of the dye” value in data set [4] was “∘”. Also, the “Solubility of dye in water” value in data set [5] was “∘ (Solubility of the dye in water >30)”.

`O=C(CCCS(=O)(=O)c1cc(S(=O)(=O)O)c(Nc2cc(S(=O)(=O)O)c3[nH]c(=O)c(C(=O)c4cccc(S(=O)(=O)O)c4)c4c3c2C(=O)c2ccccc2-4)c(S(=O)(=O)O)c1)c1cccc(S(=O)(=O)O)c1` [Dp4]: in data set [1], the “Water resistance of ink printed images” value is listed as “∘”. Besides, the “Ultraviolet resistance” value in data set [2] is “∘ (ΔE<10)”. Besides, the “Ozone resistance of ink printed images” value in data set [3] was “∘ (ΔE<10)”. For the same molecule, in data set [4], the “Long-term stability of the dye” value is on record as “∘”. Besides, the “Solubility of dye in water” value in data set [5] was “∘ (Solubility of the dye in water >30)”.

Regarding `O=C(c1cccc(S(=O)(=O)O)c1)c1c2c3c(c(Nc4c(S(=O)(=O)O)cc(S(=O)(=O)CCC5C(=O)c6ccccc6C5=O)cc4S(=O)(=O)O)cc(S(=O)(=O)O)c3[nH]c1=O)C(=O)c1ccccc1-2` [Dp8], the “Water resistance of ink printed images” value in data set [1] was “∘”. For the same molecule, the “Ultraviolet resistance” value in data set [2] is recorded as “∘ (ΔE<10)”. Moreover, the “Ozone resistance of ink printed images” value in data set [3] was “∘ (ΔE<10)”. Further, in data set [4], the “Long-term stability of the dye” value was “∘”. In data set [5], the “Solubility of dye in water” value is recorded as “∘ (Solubility of the dye in water >30)”.

Take `O=C(c1cccc(S(=O)(=O)O)c1)c1c2c3c(c(Nc4c(S(=O)(=O)O)cc(S(=O)(=O)CCC5C(=O)c6ccc(S(=O)(=O)O)cc6C5=O)cc4S(=O)(=O)O)cc(S(=O)(=O)O)c3[nH]c1=O)C(=O)c1ccccc1-2` (stereo not shown) [Dp10]: the “Water resistance of ink printed images” value in data set [1] is on record as “∘”. Moreover, the “Ultraviolet resistance” value in data set [2] was “∘ (ΔE<10)”. The “Ozone resistance of ink printed images” value in data set [3] is on record as “∘ (ΔE<10)”. For the same molecule, the “Long-term stability of the dye” value in data set [4] is “∘”. Besides, the “Solubility of dye in water” value in data set [5] is “∘ (Solubility of the dye in water >30)”.
